Reference: ChEMBL document CHEMBL1201862, “PubChem BioAssay data set” (2004)
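Where inhibition never reached the appropriate level, the endpoint shown equals the highest concentration tested. Otherwise, values were interpolated linearly from a five-concentration, 48-hour dose response in 96-well plates. Abbreviation: GI50, concentration required for 50% inhibition of growth.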 Activity calls are given as the source filed them. Cut-off read from the data, not from the text of the source: active = GI50 up to about 1.1 µM and inactive = higher.

Legend:
Assay in all cases: growth of human tumour cells (NCI), 48 h
UACC-62 = tested on: UACC-62
NCI-H522 = tested on: NCI-H522
K562 = tested on: K562
NCI-H460 = tested on: NCI-H460
HT-29 = tested on: HT-29
HOP-92 = tested on: HOP-92
SF-295 = tested on: SF-295
Malme-3M = tested on: Malme-3M
RXF 393 = tested on: RXF 393
HCT-15 = tested on: HCT-15
SK-MEL-2 = tested on: SK-MEL-2
CCRF-CEM = tested on: CCRF-CEM
OVCAR-4 = tested on: OVCAR-4
OVCAR-5 = tested on: OVCAR-5
DLD-1 = tested on: DLD-1
SF-268 = tested on: SF-268
UACC-257 = tested on: UACC-257
M19-MEL = tested on: M19-MEL
A549 = tested on: A549
ACHN = tested on: ACHN

Structure (SMILES)	GI50 (UACC-62)	GI50 (NCI-H522)	GI50 (K562)	GI50 (NCI-H460)	GI50 (HT-29)	GI50 (HOP-92)	GI50 (SF-295)	GI50 (Malme-3M)	GI50 (RXF 393)	GI50 (HCT-15) [µM]	GI50 (SK-MEL-2)	GI50 (CCRF-CEM)	GI50 (OVCAR-4)	GI50 (OVCAR-5)	GI50 (DLD-1)	GI50 (SF-268)	GI50 (UACC-257)	GI50 (M19-MEL)	GI50 (A549)	GI50 (ACHN)
CC(=O)Oc1ccccc1[C@H]1CC(=O)C[C@H](c2ccccc2OC(C)=O)C12C(=O)c1ccccc1C2=O	13 µM (inactive)	26.7 µM (inactive)	12.7 µM (inactive)	19.1 µM (inactive)	29.2 µM (inactive)	47.9 µM (inactive)	22.6 µM (inactive)	40 µM (inactive)	24.6 µM (inactive)	26.2	23.5 µM (inactive)	10.9 µM (inactive)	65.6 µM (inactive)	44.2 µM (inactive)						
Cc1[nH]c(=O)[nH]c(=O)c1/C=C/C(=O)NC(CO)CC(C)C (stereo unspecified)	> 375 µM (inactive)	114 µM (inactive)	179 µM (inactive)	163 µM (inactive)	222 µM (inactive)	17.5 µM (inactive)	> 375 µM (inactive)	233 µM (inactive)	> 375 µM (inactive)	> 360	> 305 µM (inactive)	181 µM (inactive)	214 µM (inactive)	> 265 µM (inactive)	> 375 µM (inactive)	231 µM (inactive)	> 375 µM (inactive)	322 µM (inactive)	349 µM (inactive)	
COc1ccc(CCn2nccc2C)cc1	> 100 µM (inactive)		> 100 µM (inactive)	> 100 µM (inactive)	> 100 µM (inactive)		> 100 µM (inactive)	> 100 µM (inactive)	> 100 µM (inactive)	> 100		> 100 µM (inactive)	> 100 µM (inactive)	> 100 µM (inactive)		> 100 µM (inactive)	> 100 µM (inactive)		> 100 µM (inactive)	> 100 µM (inactive)
COc1ccccc1NC(=O)C(=O)C(C(=O)c1ccccc1F)C1OC(=O)c2ccccc21 (stereo unspecified)	15.8 µM (inactive)	16.9 µM (inactive)	32.7 µM (inactive)	25.8 µM (inactive)	23.9 µM (inactive)	42.6 µM (inactive)	43.1 µM (inactive)		42.9 µM (inactive)	25	17.6 µM (inactive)	16.1 µM (inactive)	28.1 µM (inactive)	45.1 µM (inactive)	33.3 µM (inactive)	29.9 µM (inactive)	54.8 µM (inactive)	15.8 µM (inactive)	45.3 µM (inactive)	39.4 µM (inactive)
CC1(Cl)CC2C(CC1Sc1nnnn1-c1ccccc1)C2(C)C (stereo unspecified)	98.9 µM (inactive)		32.4 µM (inactive)	89.9 µM (inactive)	> 100 µM (inactive)	58.6 µM (inactive)	40.8 µM (inactive)		48.9 µM (inactive)	41.3	> 100 µM (inactive)	36.7 µM (inactive)	> 100 µM (inactive)	> 100 µM (inactive)	> 100 µM (inactive)	> 100 µM (inactive)	87.3 µM (inactive)	> 100 µM (inactive)	67.1 µM (inactive)	75.5 µM (inactive)
Cc1ccc(SSCCCCCS(=O)O)cc1	23.5 µM (inactive)	14.6 µM (inactive)	21.2 µM (inactive)	48.5 µM (inactive)	37.8 µM (inactive)			18.3 µM (inactive)	15.4 µM (inactive)		25.8 µM (inactive)	4.68 µM (inactive)	40 µM (inactive)	> 100 µM (inactive)	33.9 µM (inactive)	14.6 µM (inactive)	31.2 µM (inactive)	37.6 µM (inactive)		57.7 µM (inactive)
NCCCCCC(CCN)SCC1OC(n2cnc3c(N)ncnc32)C(O)C1O (stereo unspecified)	537 µM (inactive)	822 µM (inactive)	436 µM (inactive)	379 µM (inactive)	569 µM (inactive)	> 618 µM (inactive)	469 µM (inactive)	> 1280 µM (inactive)	1060 µM (inactive)	> 946	> 1500 µM (inactive)	891 µM (inactive)	> 1440 µM (inactive)	> 1500 µM (inactive)	> 1500 µM (inactive)	1460 µM (inactive)	> 1260 µM (inactive)	> 843 µM (inactive)	> 1500 µM (inactive)	
COc1ccccc1-c1cc(O)c2cc(C)cnc2n1	31.8 µM (inactive)	17.2 µM (inactive)	5.89 µM (inactive)		23.1 µM (inactive)	36.8 µM (inactive)		24.7 µM (inactive)	33.4 µM (inactive)	19.3	25.2 µM (inactive)	17.2 µM (inactive)	> 100 µM (inactive)	80.5 µM (inactive)		52.7 µM (inactive)	38 µM (inactive)		51.6 µM (inactive)	68.7 µM (inactive)
